Measurements reported in patent publication US20220048987A1, “METHOD OF TREATMENT TO PREVENT OR REVERSE AGE-ASSOCIATED INFLAMMATION, COGNITIVE DECLINE, AND NEURODEGENERATION” (The Board of Trustees of the Leland Stanford Junior …, priority 2020, published 2022).

What was measured:
aged mice = assay: Spatial memory: Novel Object Location and Barnes Maze tasks; format: in vivo, mouse; conditions: aged (20-22 mo) mice, 2.5 mg/kg/d, 6 weeks
Experimental: The Novel Object Location protocol was adopted from Wimmer et al. with minor modifications. Mice interacted with the chamber (a 16 in×16 in×15 in white box made from PVC) over the course of 2 days involving 1 habituation period, 3 training sessions, and 1 testing session. On the day of training (day 1) mice were placed in the middle of an empty chamber and given 5 minutes to explore the chamber. Mice were then placed in an independent holding cage for an inter-training interval (ITI) of 3 minutes. The objects used were a plastic bottle and seasoning shaker of similar size (3 in H×1 in W×1 in L). After the habituation session, the mice then underwent three 10-minute training sessions each with a 3 min ITI in between sessions. […] Animals were recorded a JVC Everio HD camcorder GZE200 and analyzed with Kinovea video tracking software. Exploration of the objects was defined as the amount of time mice were oriented toward an object with its nose within 1 cm of it, and was scored by an experimenter blind to experimental group. […]
After testing each mouse, the maze was cleaned with 70% ethanol and rotated clockwise after every mouse to avoid intra-maze odor or visual cues. All sessions were recorded using a JVC Everio HD camcorder GZ-E200 and analyzed with Kinovea video tracking software. […]

[1] = tested on: human monocyte-derived macrophages (human MDMs); assay: Real-time oxygen consumption rate (OCR) and ECAR (Seahorse) in human MDMs; format: cell-based; conditions: human MDMs, dose response, 20 h
Experimental: Cells were plated at 1.8×10^6 cells per well in a Seahorse XF24 Cell Culture Microplate (Agilent). Cells were then treated with indicated inhibitors or agonists in each experiment for 20 h. Cells were washed twice with Agilent Seahorse XF Media (Agilent) supplemented with 1 mM pyruvate, 2 mM L-glutamine, and 10 mM D-glucose; a final volume of 525 μl was placed in each well. Cells were then incubated in a 0% CO2 chamber at 37° C. for 1 h before being placed into a Seahorse XFe24 Analyzer (Agilent). For OCR and ECAR mitostress test experiments, cells were treated with 1 μM oligomycin, 2 μM carbonyl cyanide p-trifluoromethoxyphenylhydrazone (FCCP), and 0.5 μM rotenone/antimycin (indicated by three black arrows in each seahorse trace). For mitoFlex Fuel test experiments, cells were treated with UK5099 (200 μM) and BPTES (200 μM)/Etomoxir (80 μM). A total of three OCR and pH measurements were taken after each compound was administered. All Seahorse experiments were repeated at least three times unless otherwise indicated. All OCR and ECAR data were normalized to cell number per well using CyQUANT (ThermoFisher Scientific, Waltham, Mass., USA).
Peripheral blood mononuclear cells from de-identified healthy donors (young<35 years old, aged>65 years old) were obtained from the Stanford Blood Center and transferred to 50 ml conical tubes. Samples were diluted with 20 ml PBS and layered onto 10 ml of Ficoll-Paque (GE Healthcare) using a Pasteur pipette. Tubes were centrifuged at 1,500 r.p.m. for 25 min without brake at 20° C. The mononuclear cell layer was transferred to a new 50 ml conical tube, resuspended in 50 ml 1×PBS and centrifuged at 1500 r.p.m. for 10 min, repeated twice. After centrifugation, monocytes were isolated using a Monocyte Isolation Kit, human (MACS; Miltenyi Biotech). Cells were then plated 10×10^6 per 10-cm petri dish and differentiated for 7 days in Roswell Park Memorial Institute (RPMI) media supplemented with 10% FBS, 1% penicillin-streptomycin, and 50 ng ml^−1 M-CSF (Peprotech).

[2] = Measurement of PF04418948 in plasma and brain (LC/MS/MS); format: in vivo, mouse; conditions: aged (20-22 mo) mice, 2.5 mg/kg/d, 6 weeks, perfused brain
Experimental: Presence of PF04418948 was measured in aged (20-22 mo) mice treated with PF04418948 2.5 mg/kg/d for 6 weeks in plasma and perfused brain by LC/MS/MS at Quintara Discovery (Hayward, Calif., USA). In brief, brain samples were first homogenized in 2 volumes of ice-cold water, then further 2 fold diluted in blank plasma. An aliquot of 20 μL of each plasma sample or plasma diluted tissue homogenate was treated with 100 μL of acetonitrile containing internal standard (Terfenadine). The mixture was vortexed on a shaker for 15 minutes and subsequently centrifuged at 4000 rpm for 15 minutes. An aliquot of 70 μL of the extract was transferred to an injection plate and reconstituted in 70 μL of water for LC/MS/MS injection. Calibration standards and quality control samples were prepared by spiking the testing compound into blank plasma followed by processing with the samples.

Compound: COc1ccc2cc(OCC3(C(=O)O)CN(C(=O)c4ccc(F)cc4)C3)ccc2c1 [PF-04418948]
- hippocampal memory function (aged mice): restored hippocampal memory function as well as LTP to youthful levels
- ECAR (extracellular acidification rate, glycolysis) [1]: increased
- basal OCR (oxygen consumption) [1]: increased
- brain level (whole brain lysates) [2]: not detected
